The values that follow come from ChEMBL document CHEMBL1201862, “PubChem BioAssay data set” (2004).

Test systems include A498; CAKI-1; COLO 205; HCT-15; NCI-H226; NCI-H23; NCI-H522; OVCAR-5; OVCAR-8; SF-539; SK-MEL-28; SK-MEL-2; SK-OV-3; SNB-75; SW-620; UACC-62; MDA-MB-435; NCI/ADR-RES; PC-3; Hs-578T.
What all share (assay): inhibition of tumour cell growth, NCI panel, 48 h

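Values below derive from 48-hour exposures of cells grown in 96-well plates, with endpoints linearly interpolated between the two concentrations bracketing the appropriate inhibition level. GI50 marks 50% less growth.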 The source made the active and inactive calls. Cut-off read from the data, not from the text of the source: active = GI50 up to about 1.1 µM and inactive = higher. Bounds are passed on as bounds.

For the molecule `CNC(=O)N(CCCCC(NC(C)=O)C(=O)NCc1ccccc1)Cc1ccccc1` (stereo not given), the GI50 in the test on A498 was > 100 µM (inactive); in the test with CAKI-1, > 100 µM (inactive); in the test with COLO 205, > 100 µM (inactive); with HCT-15 it was greater than 100 µM; with NCI-H226 it was > 100 µM (inactive); in the test on NCI-H23, > 100 µM (inactive). The GI50 in the test on NCI-H522, in the test with OVCAR-5, with OVCAR-8, with SF-539, with SK-MEL-28 and in the test with SK-MEL-2 was > 100 µM (inactive) throughout. Besides, the GI50 in the test with SK-OV-3, in the test on SNB-75, in the test with SW-620 and in the test on UACC-62 was > 100 µM (inactive) throughout.
On to `Cn1c(S)nnc1CNc1ccc(-c2nnc(S)n2C)cc1`, for which the GI50 in the test on CAKI-1 was > 100 µM (inactive); in the test on COLO 205, > 100 µM (inactive); in the test on HCT-15 it was greater than 100 µM; in the test on MDA-MB-435 it was > 100 µM (inactive); with NCI-H226, > 100 µM (inactive); with NCI-H23 it was > 100 µM (inactive). The GI50 with NCI-H522, in the test on NCI/ADR-RES, with OVCAR-5, in the test with OVCAR-8, in the test with PC-3 and with SF-539 was > 100 µM (inactive) in each case. The GI50 in the test with SK-MEL-28, with SK-MEL-2, in the test on SK-OV-3, in the test on SNB-75 and with SW-620 was > 100 µM (inactive) throughout.
For the molecule `O=C(Cc1ccccc1)NNc1nc(NNC(=O)c2ccncc2)nc(Nc2ccc(Cl)cc2)n1`, the GI50 in the test with CAKI-1 was > 10 µM (inactive); in the test on COLO 205, > 10 µM (inactive); in the test on HCT-15, greater than 10 µM; in the test with Hs-578T it was > 10 µM (inactive); with NCI-H23, > 10 µM (inactive); in the test on NCI/ADR-RES, 5.85 µM (inactive). In addition, the GI50 in the test with OVCAR-8, with SF-539, with SK-MEL-28, in the test with SK-OV-3, in the test with SNB-75 and with SW-620 was > 10 µM (inactive) in each case. Moreover, the GI50 with UACC-62 is 9.68 µM (inactive).
Consider `COc1ccc(/C=C2\C(=O)N(C)C(=O)c3cc(OC)c(OC)cc32)cc1OC`, for which the GI50 with A498 is 27.4 µM (inactive); in the test with CAKI-1, 13.4 µM (inactive); in the test on COLO 205, 16.4 µM (inactive); in the test on HCT-15, 30.8 µM; in the test on MDA-MB-435 it was 34.5 µM (inactive); in the test with NCI-H226 it was 12.9 µM (inactive). Moreover, the GI50 in the test with NCI-H23 was 39.5 µM (inactive); in the test with NCI-H522 it was 15.7 µM (inactive); in the test on OVCAR-5, 48.9 µM (inactive); in the test on PC-3, 49.7 µM (inactive); in the test with SF-539 it was 34.9 µM (inactive); in the test with SK-MEL-2 it was 35.6 µM (inactive). Moreover, the GI50 was 36.6 µM (inactive) in the test on SW-620 and 26.9 µM (inactive) with UACC-62.
As to `Cc1cc(C)nc(NC(=O)c2ccc(Br)s2)c1`, the GI50 in the test with A498 is 30.5 µM (inactive); in the test with CAKI-1, > 100 µM (inactive); in the test on COLO 205, 10.6 µM (inactive); in the test on HCT-15, 94.8 µM; in the test on MDA-MB-435, 79.1 µM (inactive); with NCI-H226, > 100 µM (inactive). Besides, the GI50 with NCI-H23 is 77.6 µM (inactive); in the test with NCI-H522, > 100 µM (inactive); in the test on NCI/ADR-RES, > 100 µM (inactive); in the test on OVCAR-5 it was 17.7 µM (inactive); in the test on OVCAR-8, > 100 µM (inactive); in the test on PC-3 it was > 100 µM (inactive). Also, the GI50 in the test with SF-539 was 56.9 µM (inactive); with SK-MEL-28, > 100 µM (inactive); with SK-MEL-2 it was > 100 µM (inactive); in the test with SK-OV-3 it was > 100 µM (inactive); in the test with SNB-75, 47.8 µM (inactive); in the test on SW-620 it was > 100 µM (inactive). The GI50 with UACC-62 was 95.3 µM (inactive).
As for `CSC(SC)=C1C(=O)N(c2ccccc2)N=C1C`, the GI50 was 29.4 µM (inactive) with A498; 29 µM (inactive) in the test with CAKI-1; 19.9 µM (inactive) with COLO 205; 24.1 µM in the test with HCT-15; 88.1 µM (inactive) with Hs-578T; 30.3 µM (inactive) in the test on NCI-H226. Further, the GI50 in the test on NCI-H522 was 17.5 µM (inactive); in the test with NCI/ADR-RES, 31.2 µM (inactive); with OVCAR-5, 29.5 µM (inactive); in the test on OVCAR-8 it was 33.8 µM (inactive); with PC-3, 28.1 µM (inactive); in the test on SF-539 it was 36.7 µM (inactive). Further, the GI50 was 20 µM (inactive) in the test on SK-MEL-2; 29.2 µM (inactive) with SK-OV-3; 21.2 µM (inactive) in the test on SNB-75; 32 µM (inactive) in the test with SW-620; 27 µM (inactive) with UACC-62.
Take `COc1ccc(C2=NOP(c3ccccc3)(c3ccccc3)(c3ccccc3)C2)cc1`: the GI50 is 33.3 µM (inactive) with A498; 25.1 µM (inactive) with CAKI-1; 9.64 µM (inactive) with COLO 205; 20.4 µM in the test with HCT-15; 25.9 µM (inactive) with NCI-H226; 19.1 µM (inactive) in the test on NCI-H23. Moreover, the GI50 was 7.91 µM (inactive) with NCI-H522; 4.45 µM (inactive) with OVCAR-5; 14.8 µM (inactive) with OVCAR-8; 29.7 µM (inactive) in the test on SF-539; 27.9 µM (inactive) in the test on SK-MEL-28; 7.08 µM (inactive) in the test with SK-MEL-2. The GI50 in the test with SK-OV-3 is 43.6 µM (inactive); in the test with SNB-75, 33 µM (inactive); in the test with SW-620, 16.2 µM (inactive); with UACC-62 it was 13.8 µM (inactive).
For the molecule `N/C(=N\c1ccc(Cl)cc1)NS(=O)(=O)c1cccc2nsnc12`, the GI50 in the test with A498 was 15.6 µM (inactive); with HCT-15, 30.3 µM; in the test on Hs-578T, 20.9 µM (inactive); in the test on NCI-H226 it was 68.7 µM (inactive); with NCI-H23, 34.7 µM (inactive); in the test with NCI-H522, 5.92 µM (inactive). The GI50 in the test with NCI/ADR-RES is 31.3 µM (inactive); in the test on OVCAR-5, 55.7 µM (inactive); in the test with OVCAR-8, 27.6 µM (inactive); in the test on PC-3, 17.4 µM (inactive); in the test on SF-539, 37.3 µM (inactive); in the test with SK-MEL-28, 21 µM (inactive). For the same molecule, the GI50 in the test with SK-MEL-2 is 11.9 µM (inactive); in the test with SK-OV-3, 74.8 µM (inactive); in the test with SNB-75 it was > 100 µM (inactive); with SW-620, 66.1 µM (inactive); in the test on UACC-62, 17 µM (inactive).
`C#CCNC(=O)NC(CCCNC(=O)OCc1ccccc1)C(=O)OCc1ccccc1` (stereo not given): the GI50 in the test with A498 was > 100 µM (inactive); in the test with CAKI-1 it was 33.8 µM (inactive); in the test on COLO 205, 35.7 µM (inactive); with HCT-15 it was greater than 100 µM; in the test on NCI-H226, > 100 µM (inactive); with NCI-H23, > 100 µM (inactive). In addition, the GI50 is 25.9 µM (inactive) in the test on NCI-H522; > 100 µM (inactive) with OVCAR-5; > 100 µM (inactive) with OVCAR-8; 50.2 µM (inactive) in the test with SF-539; > 100 µM (inactive) in the test with SK-MEL-28; 33.7 µM (inactive) with SK-MEL-2. For the same molecule, the GI50 is > 100 µM (inactive) with SK-OV-3, 82.4 µM (inactive) with SNB-75, > 100 µM (inactive) with SW-620 and 34.8 µM (inactive) with UACC-62.
